| SMILES | melting point |
| --- | --- |
| CC(C)(c1ccc(C(O)(C(F)(F)F)C(F)(F)F)cc1)S(=O)(=O)c1ccccc1 [Example 19, 1,1,1,3,3,3-Hexafluoro-2-{4-[1-methyl-1-(phenylsulfonyl)ethyl]phenyl}propan-2-ol] | 185 °C |
| O=S(=O)(Cc1ccc(C(O)(C(F)(F)F)C(F)(F)F)cc1)c1cccc(Br)c1 [Example 6, 2-(4-{[(3-Bromophenyl)sulfonyl]methyl}phenyl)-1,1,1,3,3,3-hexafluoropropan-2-ol] | 121 °C |
| Cc1ccc(S(=O)(=O)Cc2ccc(C(O)(C(F)(F)F)C(F)(F)F)cc2)cc1 [Example 2, 1,1,1,3,3,3-Hexafluoro-2-(4-{[(4-methylphenyl)sulfonyl]methyl}phenyl)propan-2-ol] | 129 °C |
| C=CCC(c1ccc(C(O)(C(F)(F)F)C(F)(F)F)cc1)S(=O)(=O)c1ccccc1 (stereo not drawn) [Example 14, 1,1,1,3,3,3-Hexafluoro-2-{4-[1-(phenylsulfonyl)but-3-enyl]phenyl}propan-2-ol] | 148 °C |
| Cc1ccc(CC(c2ccc(C(O)(C(F)(F)F)C(F)(F)F)cc2)S(=O)(=O)c2ccccc2)cc1 (stereo not drawn) [Example 17, 1,1,1,3,3,3-Hexafluoro-2-{4-[2-(4-methylphenyl)-1-(phenylsulfonyl)ethyl]phenyl}propan-2-ol] | 159 °C |
| CC(C)(C)C(=O)C(c1ccc(C(O)(C(F)(F)F)C(F)(F)F)cc1)S(=O)(=O)c1ccccc1 (stereo not drawn) [Example 11, 3,3-Dimethyl-1-(phenylsulfonyl)-1-{4-[2,2,2-trifluoro-1-hydroxy-1-(trifluoromethyl) -ethyl]phenyl}butan-2-one] | 172 °C |
| O=S(=O)(c1ccccc1)C(Cc1ccccc1)c1ccc(C(O)(C(F)(F)F)C(F)(F)F)cc1 (stereo not drawn) [Example 9, 1,1,1,3,3,3-Hexafluoro-2-{4-[2-phenyl-1-(phenylsulfonyl)ethyl]phenyl}propan-2-ol] | 157 °C |
| O=S(=O)(c1ccccc1)C(CC(F)(F)F)c1ccc(C(O)(C(F)(F)F)C(F)(F)F)cc1 (stereo not drawn) [Example 16, 1,1,1,3,3,3-Hexafluoro-2-{4-[3,3,3-trifluoro-1-(phenylsulfonyl)propyl]phenyl}propan-2-ol] | 151 °C |
| O=S(=O)(c1ccccc1)C(Cc1ccc(-c2ccccc2)cc1)c1ccc(C(O)(C(F)(F)F)C(F)(F)F)cc1 (stereo not drawn) [Example 18, 2-{4-[2-(1,1′-Biphenyl-4-yl)-1-(phenylsulfonyl)ethyl]phenyl}-1,1,1,3,3,3-hexafluoropropan-2-ol] | 192 °C |
| O=S(=O)(Cc1ccc(C(O)(C(F)(F)F)C(F)(F)F)cc1)c1ccc(Br)cc1 [Example 4, 2-(4-{[(4-Bromophenyl)sulfonyl]methyl}phenyl)-1,1,1,3,3,3-hexafluoropropan-2-ol] | 126 °C |
| CCC(c1ccc(C(O)(C(F)(F)F)C(F)(F)F)cc1)S(=O)(=O)c1ccccc1 (stereo not drawn) [Example 15, 1,1,1,3,3,3-Hexafluoro-2-{4-[1-(phenylsulfonyl)propyl]phenyl}propan-2-ol] | 148 °C |
| CC(c1ccc(C(O)(C(F)(F)F)C(F)(F)F)cc1)S(=O)(=O)c1ccccc1 (stereo not drawn) [Example 8, 1,1,1,3,3,3-Hexafluoro-2-{4-[1-(phenylsulfonyl)ethyl]phenyl}propan-2-ol] | 136 °C |
| O=S(=O)(Cc1ccc(C(O)(C(F)(F)F)C(F)(F)F)cc1)c1ccccc1Br [Example 5, 2-(4-{[(2-Bromophenyl)sulfonyl]methyl}phenyl)-1,1,1,3,3,3-hexafluoropropan-2-ol] | 124 °C |
| O=S(=O)(Cc1ccc(C(O)(C(F)(F)F)C(F)(F)F)cc1)c1ccc2ccccc2c1 [Example 3, 1,1,1,3,3,3-Hexafluoro-2-{4-[(2-naphthylsulfonyl)methyl]phenyl}propan-2-ol] | 148 °C |
| O=S(=O)(Cc1ccc(C(O)(C(F)(F)F)C(F)(F)F)cc1)c1ccc(Cl)cc1 [Example 7, 2-(4-{[(4-Chlorophenyl)sulfonyl]methyl}phenyl)-1,1,1,3,3,3-hexafluoropropan-2-ol] | 112 °C |

Reference: patent US6822120B2, “Sulfone liver X-receptor modulators” (Pharmacia Corporation, priority 2002, dated 2004)
